Experimental data as given in patent publication US8445636B2, “Antimicrobial and anticancer lipopeptides” (Yeda Research & Development Co. Ltd., priority 2003, dated 2013).
Values after ≈ are worked out from the molar mass of the structure shown. Like-named read-outs stand apart in the source and are kept apart here. Non-standard residues stand in square brackets, D forms with d. Residues, ends and D or L forms follow the SMILES beside them. *: point of attachment. Palmitoyl = CCCCCCCCCCCCCCCC(=O)*; Decanoyl = CCCCCCCCCC(=O)*

Tests used:
Assay type in all cases: cell-based
[1] = test system: Acinetobacter baumannii ATCC 19606
In short: (§1)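 Lipopeptides were serially diluted 2-fold in water and combined with an equal volume of bacterial suspension (1×10^6 CFU/ml) in LB medium, normally at pH 7.4. Plates were incubated 18-20 h at 37° C, absorbance at 600 nm was measured, and the MIC was taken as the concentration fully inhibiting growth.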

[2] = test system: Escherichia coli ATCC 25922
In short: as §1

[3] = test system: Pseudomonas aeruginosa ATCC 27853
In short: as §1

[4] = test system: Staphylococcus aureus ATCC 6538P
In short: as §1

B. subtilis ATCC 6051 = test system: B. subtilis ATCC 6051
[5] = test system: Candida albicans ATCC 10231; assay: microbe, parasite or virus in culture; details: for MIC: read-out: Minimal Inhibitory Concentration, Candida Albicans (ATCC 10231)
In short: (§2)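 MIC = lowest concentration giving 100% growth inhibition by A620 after 24-48 h at 35 °C with agitation. Inoculum: 1×10^4 CFU/ml (pre-mix) in RPMI 1640/0.165 M MOPS; pH 7.4 by default, 5.5 where noted. Peptide as twofold dilution series in water.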

[6] = test system: Cryptococcus neoformans ATCC MYA-422; assay: microbe, parasite or virus in culture
[7] = test system: Aspergillus fumigatus ATCC 26430; assay: microbe, parasite or virus in culture
[8] = test system: Aspergillus flavus ATCC 9643
[9] = test system: Aspergillus niger ATCC 9642
Description: The antifungal activity of the lipopeptides was examined in sterile 96-well plates (Nunc F96 microtiter plates) in a final volume of 200 μL as follows: 100 µl of a suspension containing fungi at a concentration of 1×10^4 Colony-Forming Units (CFU)/ml in culture medium (RPMI 1640, 0.165 M MOPS with L-glutamine, without NaHCO3) at pH 7.4 or pH 5.5 (adjustment of the pH was done by diluted solutions of HCl and NaOH) were added to 100 μl of water containing the peptide in serial 2-fold dilutions in water. The fungi were incubated in the presence of the lipopeptides for 24-48 h at 35° C. in a Binder KB115 incubator under agitation. Growth inhibition was determined by measuring the absorbance at 620 nm with a Microplate autoreader E1309 (Bio-Tek Instruments). Antifungal activity is expressed as the minimal inhibitory concentration (MIC), the concentration at which 100% inhibition of fungi growth was observed after the incubation time mentioned above. The fungi used were: Aspergillus niger ATCC 9642, Candida albicans ATCC 10231 and Cryptococcus neoformans ATCC 66031. If not indicated otherwise, the fungi growth was detected at pH 7.4.

[10] = test system: Enterobacter cloacae ATCC 49141; details: Table 4; pH 7.4
In short: as §1

[11] = test system: Enterococcus faecalis ATCC 29212; details: Table 4; pH 7.4
In short: as §1

[12] = test system: methicilin-resistant Staphylococcus aureus (MRSA) ATCC 700698; details: Table 4; pH 7.4
In short: as §1

[13] = test system: Cryptococcus neoformans ATCC 66031; assay: microbe, parasite or virus in culture; details: Table 10; pH 7.4
In short: as §2

[14] = test system: human red blood cells (hRBC); assay: Hemolytic activity, release of hemoglobin at 540 nm
Description: Fresh human red blood cells (hRBC) with EDTA were rinsed 3 times with PBS (35 mM phosphate buffer/0.15 M NaCl, pH 7.3) by centrifugation for 10 min at 800 g and resuspended in PBS. Peptides dissolved in PBS were then added to 50 μl of a solution of the stock hRBC in PBS to reach a final volume of 100 μl (final erythrocyte concentration, 4% v/v). The resulting suspension was incubated under agitation for 60 min at 37° C. The samples were then centrifuged at 800×g for 10 min. Release of hemoglobin was monitored by measuring the absorbance of the supernatant at 540 nm. Controls for zero hemolysis (blank) and 100% hemolysis consisted of hRBC suspended in PBS and Triton 1%, respectively.

E. aerogenes ATCC 35029 = details: ATCC 35029, pH 7.4
In short: as §1

E. coli ATCC 35218 = details: ATCC 35218, pH 7.4
In short: as §1

[15] = Table 8, lipopeptides vs parent peptides, pH 7.4
[16] = Table 14, lipopeptides vs parent peptides, pH 7.4

SMILES | Minimal Inhibitory Concentration, A. baumannii ATCC 19606 [1, 15] [µM] | Minimal Inhibitory Concentration, E. coli (ATCC 25922) [2, 15] [µM] | Minimal Inhibitory Concentration, P. aeruginosa ATCC 27853 [3, 15] [µM] | Minimal Inhibitory Concentration, S. aureus ATCC 6538P [4, 15] [µM] | Minimal Inhibitory Concentration, B. subtilis (ATCC 6051) (B. subtilis ATCC 6051; [15]) [µM] | MIC [5, 16] [µM] | Minimal Inhibitory Concentration, Cryptococcus neoformans (ATCC MYA-422) [6, 16] [µM] | Minimal Inhibitory Concentration, Aspergillus fumigatus (ATCC 26430) [7, 16] [µM] | Minimal Inhibitory Concentration, Aspergillus flavus (ATCC 9643) [8, 16] [µM] | Minimal Inhibitory Concentration, Aspergillus niger (ATCC 9642) [9, 16] [µM] | Minimal Inhibitory Concentration, A. baumannii ATCC 19606 ([1]; ATCC 19606, pH 7.4) [µM] | Minimal Inhibitory Concentration, E. coli (ATCC 25922) ([2]; ATCC 25922, pH 7.4) [µM] | Minimal Inhibitory Concentration, P. aeruginosa ATCC 27853 ([3]; ATCC 27853, pH 7.4) [µM] | Minimal Inhibitory Concentration, S. aureus ATCC 6538P ([4]; ATCC 6538, pH 7.4) [µM] | Minimal Inhibitory Concentration, B. subtilis (ATCC 6051) (B. subtilis ATCC 6051; ATCC 6051, pH 7.4) [µM] | MIC ([5]; ATCC 10231, pH 7.4) [µM] | Minimal Inhibitory Concentration, Cryptococcus neoformans (ATCC MYA-422) ([6]; ATCC MYA-422, pH 7.4) [µM] | Minimal Inhibitory Concentration, Aspergillus fumigatus (ATCC 26430) ([7]; ATCC 26430, pH 7.4) [µM] | Minimal Inhibitory Concentration, Aspergillus flavus (ATCC 9643) ([8]; ATCC 9643, pH 7.4) [µM] | Minimal Inhibitory Concentration, Aspergillus niger (ATCC 9642) ([9]; ATCC 9642, pH 7.4) [µM] | also measured
C[C@H](NC(=O)[C@H](C)NC(=O)[C@H](CCCCN)NC(=O)[C@@H](C)NC(=O)[C@@H](C)NC(=O)[C@H](C)NC(=O)[C@@H](N)CCCCN)C(=O)N[C@H](C)C(=O)N[C@@H](CCCCN)C(=O)N[C@H](C)C(=O)N[C@@H](C)C(=O)N[C@@H](CCCCN)C(N)=O [DK4A8, reference compound] (H-KA[dA][dA]KAA[dA]K[dA]AK-NH2; N-terminus assumed) | >100 | >100 | >100 | >100 | >100 | >100 | >100 | >100 | >100 | >100 |  |  |  |  |  |  |  |  |  |  | 
NCCCC[C@@H](N)C(=O)NCC(=O)NCC(=O)NCC(=O)N[C@H](CCCCN)C(=O)NCC(=O)NCC(=O)NCC(=O)N[C@H](CCCCN)C(=O)NCC(=O)NCC(=O)N[C@H](CCCCN)C(N)=O [DK4G8, reference compound] (H-[dK]GGG[dK]GGG[dK]GG[dK]-NH2; N-terminus assumed) |  |  |  |  |  |  |  |  |  |  | >100 | >100 | >100 | >100 | >100 | >100 | >100 | >100 | >100 | >100 | 
CC(C)[C@H](NC(=O)[C@H](CCCCN)NC(=O)[C@H](NC(=O)[C@H](NC(=O)[C@@H](NC(=O)[C@@H](N)CCCCN)C(C)C)C(C)C)C(C)C)C(=O)N[C@H](C(=O)N[C@@H](C(=O)N[C@@H](CCCCN)C(=O)N[C@@H](C(=O)N[C@H](C(=O)N[C@@H](CCCCN)C(N)=O)C(C)C)C(C)C)C(C)C)C(C)C [DK4V8, reference compound] (H-KV[dV][dV]KVV[dV]K[dV]VK-NH2; N-terminus assumed) |  |  |  |  |  |  |  |  |  |  | >100 | >100 | >100 | >100 | 60 | >100 | 50 | >100 | >100 | >100 | 
CCCCCCCCCCCCCCCC(=O)N[C@@H](CCCCN)C(=O)N[C@@H](C)C(=O)N[C@H](C)C(=O)N[C@H](C)C(=O)N[C@@H](CCCCN)C(=O)N[C@@H](C)C(=O)N[C@@H](C)C(=O)N[C@H](C)C(=O)N[C@@H](CCCCN)C(=O)N[C@H](C)C(=O)N[C@@H](C)C(=O)N[C@@H](CCCCN)C(N)=O [lipopeptide 5, (CH3—(CH2)14—CO—)-Lys-Ala-D-Ala-D-Ala-Lys-Ala-Ala-D-Ala-Lys-D-Ala-Ala-Lys-NH2] (Palmitoyl-KA[dA][dA]KAA[dA]K[dA]AK-NH2) | 6.25 | 6.25 | 6.25 | 12.5 | 3.125 | 12.5 (≈ 16.7 µg/mL) | 1.56 | 100 | 80 | 10 |  |  |  |  |  |  |  |  |  |  | Minimal Inhibitory Concentration, A. Baumaannii ([1]; Table 4, pH 7.4): 6.25 µM; Minimal Inhibitory Concentration, E. cloacae [10]: 25 µM; Minimal Inhibitory Concentration, E. faecalis [11]: 12.5 µM; Minimal Inhibitory Concentration, E. coli ([2]; Table 4, pH 7.4): 6.25 µM; Minimal Inhibitory Concentration, P. Aeruginosa ([3]; Table 4, pH 7.4): 6.25 µM; Minimal Inhibitory Concentration, S. aureus ([4]; Table 4, pH 7.4): 12.5 µM; Minimal Inhibitory Concentration, S. aureus (MRSA) [12]: 12.5 µM; Minimal Inhibitory Concentration, C. albicans ATCC 10231 ([5]; Table 10, pH 7.4): 12.5 µM; Minimal Inhibitory Concentration, C. neoformans ATCC 66031 [13]: 1.56 µM; Minimal Inhibitory Concentration, A. fumigatus ATCC 26430 ([7]; Table 10, pH 7.4): 100 µM; hemolytic activity ([14]; at concentrations lower than 12 μM, human red blood cells (FIGS. 1-5)): do not exhibit significant hemolytic activity; hemolytic activity ([14]; at concentrations lower than 12.5 μM, human red blood cells, 1 h): not hemolytic
CCCCCCCCCCCCCCCC(=O)N[C@@H](CCCCN)C(=O)N[C@H](C(=O)N[C@@H](C(=O)N[C@@H](C(=O)N[C@@H](CCCCN)C(=O)N[C@H](C(=O)N[C@H](C(=O)N[C@@H](C(=O)N[C@@H](CCCCN)C(=O)N[C@@H](C(=O)N[C@H](C(=O)N[C@@H](CCCCN)C(N)=O)C(C)C)C(C)C)C(C)C)C(C)C)C(C)C)C(C)C)C(C)C)C(C)C [lipopeptide 7, (CH3—(CH2)14—CO—)-Lys-Val-D-Val-D-Val-Lys-Val-Val-D-Val-Lys-D-Val-Val-Lys-NH2] (Palmitoyl-KV[dV][dV]KVV[dV]K[dV]VK-NH2) |  |  |  |  |  |  |  |  |  |  | >100 | >100 | >100 | >100 | >100 | 3.125 (≈ 4.88 µg/mL) | 3.125 | >100 | >100 | >100 | 
CCCCCCCCCC(=O)N[C@H](CC(C)C)C(=O)N[C@@H](CCCCN)C(=O)N[C@@H](CCCCN)C(=O)N[C@H](CC(C)C)C(=O)N[C@H](CC(C)C)C(=O)N[C@@H](CCCCN)C(=O)N[C@@H](CCCCN)C(=O)N[C@H](CC(C)C)C(=O)N[C@H](CC(C)C)C(=O)N[C@@H](CCCCN)C(=O)N[C@@H](CCCCN)C(=O)N[C@H](CC(C)C)C(N)=O [lipopeptide 21, (CH3-(CH2)8-CO-)-D-Leu-Lys-Lys-D-Leu-D-Leu-Lys-Lys-D-Leu-D-Leu-Lys-Lys-D-Leu-NH2] (Decanoyl-[dL]KK[dL][dL]KK[dL][dL]KK[dL]-NH2) |  |  |  |  |  |  |  |  |  |  |  |  | 12.5 | 6.25 |  |  |  |  |  |  | Minimal Inhibitory Concentration, E. aerogenes ATCC 35029 (E. aerogenes ATCC 35029): 50 µM; Minimal Inhibitory Concentration, E. coli ATCC 35218 (E. coli ATCC 35218): 12.5 µM; Minimal Inhibitory Concentration, C. albicans ATCC 10231 ([5]; ATCC 10231, pH 7.4): 25 µM; Minimal Inhibitory Concentration, C. neoformans ATCC MYA-422 ([6]; ATCC MYA-422, pH 7.4): 1.56 µM; Minimal Inhibitory Concentration, A. fumigatus ATCC 26430 ([7]; ATCC 26430, pH 7.4): 12.5 µM
